Patent US7323485B2, “4-(substituted cycloalkylmethyl) imidazole-2-thiones, 4-(substituted cycloalkenylmethyl) imidazole-2-thiones, 4-(substituted cycloalkylmethyl) imidazol-2-ones and 4-(substituted cycloalkenylmethyl) imidazol-2-ones and related compounds” (Allergan, Inc., priority 2002, dated 2008)
Read-outs that look alike come from different tables or passages of the source.

Assays:
[1] = biological target: T1, alpha2B adrenergic receptors (Homo sapiens, UniProt P18089); experiment: Receptor Selection and Amplification Technology (RSAT) assay, alpha2B; type: cell-based; settings: for EC50: NA = not active at concentrations less than 10 micromolar, read-out: Alpha 2B EC50; for Alpha 2B intrinsic activity: fraction of maximal effect of standard full agonist brimonidine (UK14304)
T1 construct: expressed in transfected cells; host or cells: NIH-3T3
T1 sequence (P18089 1-450): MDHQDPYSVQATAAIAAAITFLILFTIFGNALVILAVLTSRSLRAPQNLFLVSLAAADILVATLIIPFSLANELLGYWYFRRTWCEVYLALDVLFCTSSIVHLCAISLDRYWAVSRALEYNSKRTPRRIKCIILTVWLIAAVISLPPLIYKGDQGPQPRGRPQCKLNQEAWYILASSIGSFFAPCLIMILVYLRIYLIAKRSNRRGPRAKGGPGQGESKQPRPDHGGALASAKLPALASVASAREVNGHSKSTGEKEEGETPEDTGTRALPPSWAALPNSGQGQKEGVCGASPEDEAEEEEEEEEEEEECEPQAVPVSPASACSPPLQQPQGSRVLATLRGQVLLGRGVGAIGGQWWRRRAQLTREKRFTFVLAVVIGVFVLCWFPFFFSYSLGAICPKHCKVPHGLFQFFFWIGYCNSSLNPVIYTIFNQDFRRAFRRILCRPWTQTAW
Description: (§1) The imidazole-2-thione compounds of the invention are agonists of alpha2 adrenergic receptors, particularly they tend to be specific or selective agonists of alpha2B and/or to a lesser extent alpha2C adrenergic receptors, in preference over alpha2A adrenergic receptors. […] Al., 1995, Pharmacol. Toxicol. 76, pp. 308-311 (incorporated herein by reference) and is also described below. Another reference pertinent to this assay is Conklin et al. (1993) Nature 363:274-6, also incorporated herein by reference.
(§2) Receptor Selection and Amplification Technology (RSAT) Assay
(§3) The RSAT assay measures a receptor-mediated loss of contact inhibition that results in selective proliferation of receptor-containing cells in a mixed population of confluent cells. The increase in cell number is assessed with an appropriate transfected marker gene such as β-galactosidase, the activity of which can be easily measured in a 96-well format. Receptors that activate the G protein, Gq, elicit this response. Alpha2 receptors, which normally couple to Gi, activate the RSAT response when coexpressed with a hybrid Gq protein that has a Gi receptor recognition domain, called Gq/i5.
(§4) NIH-3T3 cells are plated at a density of 2×10^6 cells in 15 cm dishes and maintained in Dulbecco's modified Eagle's medium supplemented with 10% calf serum. One day later, cells are cotransfected by calcium phosphate precipitation with mammalian expression plasmids encoding p-SV-β-galactosidase (5-10 μg), receptor (1-2 μg) and G protein (1-2 μg). 40 μg salmon sperm DNA may also be included in the transfection mixture. Fresh media is added on the following day and 1-2 days later, cells are harvested and frozen in 50 assay aliquots. Cells are thawed and 100 μl added to 100 μl aliquots of various concentrations of drugs in triplicate in 96-well dishes. Incubations continue 72-96 hr at 37 EC. After washing with phosphate-buffered saline, β-galactosidase enzyme activity is determined by adding 200 μl of the chromogenic substrate (consisting of 3.5 mM o-nitrophenyl-β-D-galactopyranoside and 0.5% nonidet P-40 in phosphate buffered saline), incubating overnight at 30 EC and measuring optical density at 420 nm. The absorbance is a measure of enzyme activity, which depends on cell number and reflects a receptor-mediated cell proliferation. The EC50 and maximal effect of each drug at each alpha2 receptor is determined. The efficacy or intrinsic activity is calculated as a ratio of the maximal effect of the drug to the maximal effect of a standard full agonist for each receptor subtype. Brimonidine, also called UK14304, the chemical structure of which is shown below, is used as the standard agonist for the alpha2A, alpha2B and alpha2C receptors.
(§5) The results of the RSAT assay with several exemplary compounds of the invention are disclosed in Table 1 above together with the chemical formulas of these examplary compounds. […] NA stands for “not active” at concentrations less than 10 micromolar. As is known EC50 is the concentration at which half of a given compound's maximal activity is observed.

[2] = biological target: T2, alpha2C adrenergic receptors (Homo sapiens, UniProt P18825); experiment: Receptor Selection and Amplification Technology (RSAT) assay, alpha2C; type: cell-based; settings: for EC50: NA = not active at concentrations less than 10 micromolar, read-out: Alpha 2C EC50; for Alpha 2C intrinsic activity: fraction of maximal effect of standard full agonist brimonidine (UK14304)
T2 construct: expressed in transfected cells; host or cells: NIH-3T3
T2 sequence (P18825 1-462): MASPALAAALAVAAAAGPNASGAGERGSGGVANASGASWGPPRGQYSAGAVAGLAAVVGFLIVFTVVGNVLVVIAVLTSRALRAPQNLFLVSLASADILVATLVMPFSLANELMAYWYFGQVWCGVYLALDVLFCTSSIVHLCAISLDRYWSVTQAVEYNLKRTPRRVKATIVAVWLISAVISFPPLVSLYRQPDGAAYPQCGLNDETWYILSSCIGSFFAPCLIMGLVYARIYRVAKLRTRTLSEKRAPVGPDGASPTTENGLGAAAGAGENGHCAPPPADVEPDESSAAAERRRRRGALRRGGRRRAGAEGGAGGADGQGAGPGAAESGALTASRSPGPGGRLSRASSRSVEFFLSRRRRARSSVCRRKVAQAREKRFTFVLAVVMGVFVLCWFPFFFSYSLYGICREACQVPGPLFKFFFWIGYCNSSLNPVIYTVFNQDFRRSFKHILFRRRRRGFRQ
Description: as §1, §2, §3, §4, §5

[3] = system: rats with ligated L5 and L6 spinal nerves; experiment: Chung model of neuropathic pain (tactile allodynia, von Frey hairs); type: in vivo; settings: Rattus norvegicus, 0.5 h, 30 min following drug administration, read-out: % Pain Reversal ± SEM
Description: A model in accordance with Kim and Chung 1992, Pain […], pp 355-363 (Chung model), for chronic pain (in particular peripheral neuropathy) involves the surgical ligation of the L5 (and optionally the L6) spinal nerves on one side in experimental animals. Rats recovering from the surgery gain weight and display a level of general activity similar to that of normal rats. However, these rats develop abnormalities of the foot, wherein the hindpaw is moderately everted and the toes are held together. More importantly, the hindpaw on the side affected by the surgery appears to become sensitive to pain from low-threshold mechanical stimuli, such as that producing a faint sensation of touch in a human, within about 1 week following surgery. This sensitivity to normally non-painful touch is called “tactile allodynia” and lasts for at least two months. The response includes lifting the affected hindpaw to escape from the stimulus, licking the paw and holding it in the air for many seconds. None of these responses is normally seen in the control group.
Rats are anesthetized before surgery. The surgical site is shaved and prepared either with betadine or Novacaine. Incision is made from the thoracic vertebra Xlll down toward the sacrum. Muscle tissue is separated from the spinal vertebra (left side) at the L4-S2 levels. The L6 vertebra is located and the transverse process is carefully removed with a small rongeur to expose the L4-L6 spinal nerves. The L5 and L6 spinal nerves are isolated and tightly ligated with 6-0 silk thread. The same procedure is done on the right side as a control, except no ligation of the spinal nerves is performed.
A complete hemostasis is confirmed, then the wounds are sutured. A small amount of antibiotic ointment is applied to the incised area, and the rat is transferred to the recovery plastic cage under a regulated heat-temperature lamp. On the day of the experiment, at least seven days after the surgery, typically six rats per test group are administered the test drugs by intraperitoneal (i.p.) injection or oral gavage. For i.p. injection, the compounds are formulated in approximately 10 to 50% DMSO and given in a volume of 1 ml/kg body weight.
Tactile allodynia is measured prior to and 30 minutes after drug administration using von Frey hairs that are a series of fine hairs with incremental differences in stiffness. Rats are placed in a plastic cage with a wire mesh bottom and allowed to acclimate for approximately 30 minutes. The von Frey hairs are applied perpendicularly through the mesh to the mid-plantar region of the rats' hindpaw with sufficient force to cause slight buckling and held for 6-8 seconds. The applied force has been calculated to range from 0.41 to 15.1 grams. If the paw is sharply withdrawn, it is considered a positive response. A normal animal will not respond to stimuli in this range, but a surgically ligated paw will be withdrawn in response to a 1-2 gram hair. The 50% paw withdrawal threshold is determined using the method of Dixon, W. J., Ann. Rev. Pharmacol. Toxicol. 20:441-462 (1980). The post-drug threshold is compared to the pre-drug threshold and the percent reversal of tactile sensitivity is calculated based on a normal threshold of 15.1 grams. The results are expressed in percent (%) MPE, where the MPE value reflects the percentage reversal of pain threshold to that of a normal animal (100%). Table 3 below indicates results of this test with Compounds 1, 7 and 29 of the invention, administered i.p. and in oral doses.

| Structure (SMILES) | EC50 [1] [nM] | Alpha 2B intrinsic activity [1] | EC50 [2] [nM] | Alpha 2C intrinsic activity [2] | inhibition in vivo at 0.03 mg/kg ([3]; ip, 30 μg/kg i.p.) [%] | inhibition in vivo at 0.1 mg/kg ([3]; ip, 100 μg/kg i.p.) [%] | inhibition in vivo at 1 mg/kg ([3]; ip, 1000 μg/kg i.p.) [%] | inhibition in vivo at 0.1 mg/kg ([3]; po, 100 μg/kg p.o.) [%] |
| --- | --- | --- | --- | --- | --- | --- | --- | --- |
| Fc1ccc2c(c1)CCC2Cc1c[nH]c(=S)[nH]1 (stereo not drawn) | 41 | 0.97 | 1110 | 0.52 |  |  |  |  |
| COc1ccc2c(c1)CCC2Cc1c[nH]c(=S)[nH]1 (stereo not drawn) | 1590 | 0.68 | > 2000 | 0.46 |  |  |  |  |
| CC(C)CC1=CCCC1Cc1c[nH]c(=S)[nH]1 (stereo not drawn) | 260 | 1.0 | 662 | 0.75 |  |  |  |  |
| CC1CC(Cc2c[nH]c(=S)[nH]2)C(=O)c2ccccc21 (stereo not drawn) | 523 | 0.96 | > 2000 | 0.61 |  |  |  |  |
| Cc1cccc2c1C(=O)C(Cc1c[nH]c(=S)[nH]1)CC2 (stereo not drawn) | 29 | 0.96 | 66 | 0.47 |  |  |  |  |
| O=C1c2c(CO)cccc2CCC1Cc1c[nH]c(=S)[nH]1 (stereo not drawn) | 162 | 0.95 | 306 | 0.34 |  |  |  |  |
| O=C1c2c(F)cccc2CCC1Cc1c[nH]c(=S)[nH]1 (stereo not drawn) | 172 | 0.76 | 107 | 0.35 |  |  |  |  |
| S=c1[nH]cc(C[C@H]2CCc3ccccc32)[nH]1 | 7.5 | 0.95 | 64 | 0.56 |  |  |  |  |
| S=c1[nH]cc(CC2CCC3=C2CCC3)[nH]1 (stereo not drawn) [Compound 1, 4-(1,2,3,4,5,6-hexahydro-pentalen-1-ylmethyl)-1,3-dihydro-imidazole-2-thione] |  |  |  |  | 9 ± 2 | 13 ± 2 | 44 ± 7 | 29 ± 5 |
| S=c1[nH]cc(CC2CCc3ccccc32)[nH]1 (stereo not drawn) [drawing 16] | 10 | 0.91 | 182 | 0.57 |  |  |  |  |

Now from value to compound, other results behind:

| EC50 [1] [nM] | Alpha 2B intrinsic activity [1] | EC50 [2] [nM] | Alpha 2C intrinsic activity [2] | Structure (SMILES) | inhibition in vivo at 0.03 mg/kg ([3]; ip, 30 μg/kg i.p.) [%] | inhibition in vivo at 0.1 mg/kg ([3]; ip, 100 μg/kg i.p.) [%] | inhibition in vivo at 1 mg/kg ([3]; ip, 1000 μg/kg i.p.) [%] | inhibition in vivo at 0.1 mg/kg ([3]; po, 100 μg/kg p.o.) [%] |
| --- | --- | --- | --- | --- | --- | --- | --- | --- |
| 750 | 0.49 | > 2000 | 0.32 | CCC1=CC(Cc2c[nH]c(=S)[nH]2)CC1 (stereo not drawn) |  |  |  |  |
| 58 | 0.93 | 939 | 0.34 | Cc1cccc2c1CCC2Cc1c[nH]c(=S)[nH]1 (stereo not drawn) |  |  |  |  |
| 158 | 0.85 |  | 0.62 | S=c1[nH]cc(CC2CCc3cc(Br)ccc32)[nH]1 (stereo not drawn) |  |  |  |  |
| 19 | 0.92 | 349 | 0.69 | Cc1ccc2c(c1)C(Cc1c[nH]c(=S)[nH]1)CC2 (stereo not drawn) |  |  |  |  |
| 30 | 0.94 | 139 | 1.0 | COc1ccc2c(c1)C(Cc1c[nH]c(=S)[nH]1)CC2 (stereo not drawn) |  |  |  |  |
| 422 | 1.11 | > 2000 | 0.57 | C=CC1=CCCC1Cc1c[nH]c(=S)[nH]1 (stereo not drawn) |  |  |  |  |
| 1620 | 0.88 | 2470 | 0.72 | CC=CC1=CCCC1Cc1c[nH]c(=S)[nH]1 (stereo not drawn) |  |  |  |  |
| 24.5 | 0.97 | 630 | 0.61 | S=c1[nH]cc(C[C@@H]2CCc3ccccc32)[nH]1 |  |  |  |  |
| 28 | 0.9 | 116 | 0.55 | S=c1[nH]cc(CC2CCC=C2Cl)[nH]1 (stereo not drawn) |  |  |  |  |
| 27 | 0.95 | 139 | 0.48 | CC1=C(Br)C(Cc2c[nH]c(=S)[nH]2)CC1 (stereo not drawn) |  |  |  |  |
| 5 | 0.87 | 110 | 0.43 | S=c1[nH]cc(CC2CCC3=C2CCC3)[nH]1 (stereo not drawn) [drawing 15] |  |  |  |  |
| 24 | 0.85 | 180 | 0.51 | S=c1[nH]cc(CC2CC=CC2)[nH]1 [drawing 24] |  |  |  |  |
